# Data: US6376670B1, “Quinoline-indole antimicrobial agents, uses and compositions related thereto” (Sepracor Inc., priority 1997, dated 2002)
# Where two headings read alike, the source gives them in different places.
# Tests used:
# Test in all cases: Determination of MIC values (BHI broth, 96 well microtiter plate)
# Type in all cases: cell-based
# [1] = test system: methicillin-resistant Staphylococcus aureus (MRSA); conditions: Staphylococcus aureus, MRSA, read-out: MIC MRSA
# Summary of the method: (§1)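 Here, each test series spans final concentrations of 25 to 0.39 µg/mL in BHI broth, with DMSO as diluent. Plates seeded at 10^5–10^6 cells/mL are kept at 37° C and approx. 7-10% CO2 for about 16 hours before growth is scored.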
# [2] = test system: vancomycin-resistant Enterococcus spp. (VRE); conditions: Enterococcus, VRE, read-out: MIC VREF
# Summary of the method: as §1
# Streptococcus pneumoniae = conditions: Streptococcus pneumoniae, read-out: MIC S. pneu
# Summary of the method: as §1
# [3] = VREF, BHI broth, overnight 37° C.
# [4] = S. pneu, BHI broth, overnight 37° C.
Structure (SMILES),"MIC ([1]; BHI broth, overnight 37° C.) [µg/mL]","MIC [2, 3] [µg/mL]",MIC (Streptococcus pneumoniae; [4]) [µg/mL],MIC [1] [µg/mL],MIC [2] [µg/mL],MIC (Streptococcus pneumoniae) [µg/mL]
Clc1cc(-c2c(-c3ccccc3)[nH]c3ccccc23)nc2ccccc12 [Example 353],> 25,> 25,> 25,–,–,–
Clc1ccc2nc(-c3c[nH]c4c(Cl)cccc34)ccc2c1 [Example 354],> 25,> 25,> 25,–,–,–
Clc1ccc2nc(-c3c[nH]c4c(Br)cccc34)ccc2c1 [Example 355],> 25,> 25,> 25,–,–,–
Cn1cc(-c2cc(C(=O)NCc3cccc(CN)c3)c3cc(I)ccc3n2)c2cc(Br)ccc21 [Example 356],< 7,< 7,< 7,–,–,–
Cn1cc(-c2cc(C(=O)NCC3CCC(CN)CC3)c3cc(I)ccc3n2)c2cc(Br)ccc21 (stereo not drawn) [Example 357],< 7,< 7,< 7,–,–,–
Cn1cc(-c2cc(C(=O)NCC3CCCC(CN)C3)c3cc(I)ccc3n2)c2cc(Br)ccc21 (stereo not drawn) [Example 358],< 7,< 7,< 7,–,–,–
Cn1cc(-c2cc(C(=O)NC3CCC(N)CC3)c3cc(I)ccc3n2)c2cc(Br)ccc21 (stereo not drawn) [Example 360],< 7,< 7,< 7,–,–,–
CCOc1cc(-c2cn(C(=O)OC(C)(C)C)c3ccc(Br)cc23)nc2ccc(I)cc12 [Example 361],> 25,> 25,> 25,–,–,–
CC(C)(C)OC(=O)n1cc(-c2ccc3cc(I)ccc3n2)c2cc(Br)ccc21 [Example 362],> 25,> 25,> 25,–,–,–
Brc1ccc2[nH]cc(-c3ccc4cc(I)ccc4n3)c2c1 [Example 363],< 7,< 7,< 7,–,–,–
CCOc1cc(-c2c[nH]c3ccc(Br)cc23)nc2ccc(I)cc12 [Example 364],< 7,< 25,< 7,–,–,–
Cn1cc(-c2cc(C(=O)NCc3ccc(CN)cc3)c3cc(Cl)ccc3n2)c2cc(Br)ccc21 [Example 365],< 7,< 7,< 7,–,–,–
Cn1cc(-c2cc(C(=O)NCc3cccc(CN)c3)c3cc(Cl)ccc3n2)c2cc(Br)ccc21 [Example 366],> 25,> 25,> 25,–,–,–
Cn1cc(-c2cc(C(=O)NCC3CCC(CN)CC3)c3cc(Cl)ccc3n2)c2cc(Br)ccc21 (stereo not drawn) [Example 368],< 7,< 7,< 7,–,–,–
Cn1cc(-c2cc(C(=O)NCC3CCCC(CN)C3)c3cc(Cl)ccc3n2)c2cc(Br)ccc21 (stereo not drawn) [Example 369],< 7,< 7,< 7,–,–,–
Cn1cc(-c2cc(C(=O)NCCN)c3cc(Cl)ccc3n2)c2cc(Br)ccc21 [Example 370],< 7,< 7,< 7,–,–,–
Cn1cc(-c2cc(C(=O)NC3CCC(N)CC3)c3cc(Cl)ccc3n2)c2cc(Br)ccc21 (stereo not drawn) [Example 371],< 7,< 7,< 7,–,–,–
NCc1cc(-c2c[nH]c3ccc(Cl)cc23)nc2ccccc12 [Example 372],< 7,< 25,< 7,–,–,–
Brc1ccc2c(CNCc3ccccc3)cc(-c3c[nH]c4ccc(Br)cc34)nc2c1 [Example 373],< 7,< 7,< 7,–,–,–
NCc1ccc(/C=C/c2cc(-c3c[nH]c4ccc(Br)cc34)nc3cc(Br)ccc23)cc1 [Example 374],< 7,< 7,< 7,–,–,–
CCB(OC)C(=O)c1cc(-c2c[nH]c3ccc(Br)cc23)nc2cc(Br)ccc12 [Example 375],> 25,> 25,> 25,–,–,–

Structure (SMILES),"MIC ([1]; BHI broth, overnight 37° C.) [µg/mL]","MIC [2, 3] [µg/mL]",MIC (Streptococcus pneumoniae; [4]) [µg/mL],MIC [1] [µg/mL],MIC [2] [µg/mL],MIC (Streptococcus pneumoniae) [µg/mL]
Cn1cc(-c2cc(C(=O)NCc3ccc(CN)cc3)c3cc(C#CCN4CCCCC4)ccc3n2)c2cc(Br)ccc21 [Example 376],< 25,< 25,< 7,–,–,–
Cn1cc(-c2cc(C(=O)NCCN)c3cc(C#CCN4CCCCC4)ccc3n2)c2cc(Br)ccc21 [Example 377],< 7,< 7,< 7,–,–,–
CC(C)(C)OC(=O)n1cc(/C=N/c2cccc(Cl)c2)c2cc(Br)ccc21 [Example 381],> 25,> 25,> 25,–,–,–
C[Si](C)(C)CCOC(=O)n1cc(C=O)c2cc(Br)ccc21 [Example 382],–,–,–,> 25,> 25,> 25
C[Si](C)(C)CCOC(=O)n1cc(/C=N/c2ccc(I)cc2)c2cc(Br)ccc21 [Example 383],–,–,–,> 25,> 25,> 25
Cc1[nH]c2ccc(Cl)cc2c1-c1ccc2cc(Cl)ccc2n1 [Example 384],< 7,> 25,< 7,–,–,–
O=[N+]([O-])c1cccc2nc(-c3c[nH]c4ccc(Cl)cc34)ccc12 [Example 385],> 25,> 25,> 25,–,–,–
COc1ccc2[nH]c(C)c(-c3ccc4c([N+](=O)[O-])cccc4n3)c2c1 [Example 386],> 25,> 25,> 25,–,–,–
O=[N+]([O-])c1cccc2nc(-c3c[nH]c4ccc(Br)cc34)ccc12 [Example 387],> 25,> 25,> 25,–,–,–
O=[N+]([O-])c1cccc2nc(-c3c[nH]c4cc(F)ccc34)ccc12 [Example 388],> 25,> 25,> 25,–,–,–
Cn1cc(-c2cc(C(=O)NCc3ccc(CN)cc3)c3cc(C#CCNCCc4ccccc4)ccc3n2)c2cc(Br)ccc21 [Example 389],< 7,< 7,< 25,–,–,–
Cn1cc(-c2cc(C(=O)NCc3ccc(CN)cc3)c3cc(C#CCNCCc4ccc(Cl)cc4)ccc3n2)c2cc(Br)ccc21 [Example 390],< 25,< 7,< 7,–,–,–
Cn1cc(-c2cc(C(=O)NCc3ccc(CN)cc3)c3cc(C#CCNCC4CCCCC4)ccc3n2)c2cc(Br)ccc21 [Example 391],< 7,< 7,< 7,–,–,–
CN(C)CCNCC#Cc1ccc2nc(-c3cn(C)c4ccc(Br)cc34)cc(C(=O)NCc3ccc(CN)cc3)c2c1 [Example 392],< 7,< 7,< 7,–,–,–
Cn1cc(-c2cc(C(=O)NCc3ccc(CN)cc3)c3cc(C#CCN4CCCC4)ccc3n2)c2cc(Br)ccc21 [Example 393],< 7,< 25,< 25,–,–,–
Cn1cc(-c2cc(C(=O)NCc3ccc(CN)cc3)c3cc(C#CCN4CCc5ccccc5C4)ccc3n2)c2cc(Br)ccc21 [Example 394],> 25,> 25,> 25,–,–,–
CN1CCN(CC#Cc2ccc3nc(-c4cn(C)c5ccc(Br)cc45)cc(C(=O)NCc4ccc(CN)cc4)c3c2)CC1 [Example 395],< 7,< 25,< 25,–,–,–
Cn1cc(-c2cc(C(=O)NCc3ccc(CN)cc3)c3cc(C#CCN4CC=CC4)ccc3n2)c2cc(Br)ccc21 [Example 396],> 25,> 25,> 25,–,–,–
CN(CC#Cc1ccc2nc(-c3cn(C)c4ccc(Br)cc34)cc(C(=O)NCc3ccc(CN)cc3)c2c1)C1CCCCC1 [Example 397],< 7,< 7,< 7,–,–,–
CC(C)N(CC#Cc1ccc2nc(-c3cn(C)c4ccc(Br)cc34)cc(C(=O)NCc3ccc(CN)cc3)c2c1)C(C)C [Example 398],< 7,< 7,< 7,–,–,–
